{"source": "ChEMBL document CHEMBL1201862", "about": "“PubChem BioAssay data set” (2004)", "key": {"Melanocortin receptor 4": {"biological_target": "Melanocortin receptor 4 (Homo sapiens, UniProt P32245)", "sequence (P32245 whole entry)": "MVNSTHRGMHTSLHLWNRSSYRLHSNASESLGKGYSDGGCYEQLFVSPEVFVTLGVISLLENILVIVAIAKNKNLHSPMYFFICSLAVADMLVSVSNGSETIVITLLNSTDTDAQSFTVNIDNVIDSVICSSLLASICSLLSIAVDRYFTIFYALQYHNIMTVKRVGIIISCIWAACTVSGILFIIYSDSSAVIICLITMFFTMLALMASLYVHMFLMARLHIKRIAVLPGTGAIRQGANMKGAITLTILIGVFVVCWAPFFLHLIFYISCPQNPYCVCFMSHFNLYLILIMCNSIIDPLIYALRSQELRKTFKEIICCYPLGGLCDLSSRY", "assay": "MC4R antagonist potency on cAMP, dose response, cell-based, TR-FRET, biased antagonists (AID 602298);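 also: antagonist potency against agonist-stimulated cAMP production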", "type": "functional"}, "[1]": {"assay": "nonselective inhibitors of cellular cAMP signaling, dose response, counter-screen for MC4R biased antagonist project, cell-based, TR-FRET cAMP detection (AID 602305);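 also: U2OS cells stimulated with forskolin near its EC80 as the cAMP inducer; potency is for inhibition of forskolin-stimulated cAMP signaling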", "type": "functional"}, "CHO": {"tested_on": "CHO", "assay": "cytotoxicity in TLR9-MyD88 CHO cells, dose response, cytotoxicity control for TLR9-MyD88 binding inhibitor project, cell-based, luminescence (AID 588339);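 also: CHO cells stably coexpressing TLR9 and MyD88 fusions from primary screen; compound exposure lasted 48 hours before viability readout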", "type": "functional, hamster", "conditions": "Cricetulus griseus"}, "[2]": {"biological_target": "T1, Endoribonuclease toxin MazF (Escherichia coli K-12, UniProt P0AE70)", "T1 sequence (P0AE70 whole entry)": "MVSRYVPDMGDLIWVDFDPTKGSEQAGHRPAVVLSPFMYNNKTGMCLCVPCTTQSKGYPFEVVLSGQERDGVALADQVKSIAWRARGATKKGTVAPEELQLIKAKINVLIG", "assay": "MazF toxin RNase activators, dose response, biochemical, fluorescence, single-stranded RNA substrate, uHTS hits (AID 588481)", "type": "functional"}, "Beta Lactamase": {"biological_target": "Beta Lactamase (Pseudomonas aeruginosa, UniProt Q932Y6)", "sequence (Q932Y6 whole entry)": "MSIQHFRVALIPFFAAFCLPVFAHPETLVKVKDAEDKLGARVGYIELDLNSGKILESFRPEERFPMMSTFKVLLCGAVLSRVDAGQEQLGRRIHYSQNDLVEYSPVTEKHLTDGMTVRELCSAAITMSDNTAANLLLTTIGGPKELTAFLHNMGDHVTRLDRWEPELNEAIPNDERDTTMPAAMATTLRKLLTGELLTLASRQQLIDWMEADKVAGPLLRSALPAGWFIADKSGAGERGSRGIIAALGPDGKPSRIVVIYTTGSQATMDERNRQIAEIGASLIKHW", "assay": "beta-lactamase reporter inhibitor potency, dose response, artefact control for TLR9-MyD88 binding inhibitor project, BLA reporter cells, FRET fluorescence (AID 588341)", "type": "cell-based"}, "[3]": {"biological_target": "T1, Endoribonuclease toxin MazF", "assay": "fluorescent RNA oligo signal without MazF, dose response, counter-screen for MazEF activator project, biochemical, fluorescence, single-stranded RNase substrate (AID 588502)", "type": "functional"}, "[4]": {"biological_target": "Arf-GAP with SH3 domain, ANK repeat and PH domain-containing protein 1 (Homo sapiens, UniProt Q9ULH1)", "sequence (Q9ULH1 whole entry, the tested form may be a part)": "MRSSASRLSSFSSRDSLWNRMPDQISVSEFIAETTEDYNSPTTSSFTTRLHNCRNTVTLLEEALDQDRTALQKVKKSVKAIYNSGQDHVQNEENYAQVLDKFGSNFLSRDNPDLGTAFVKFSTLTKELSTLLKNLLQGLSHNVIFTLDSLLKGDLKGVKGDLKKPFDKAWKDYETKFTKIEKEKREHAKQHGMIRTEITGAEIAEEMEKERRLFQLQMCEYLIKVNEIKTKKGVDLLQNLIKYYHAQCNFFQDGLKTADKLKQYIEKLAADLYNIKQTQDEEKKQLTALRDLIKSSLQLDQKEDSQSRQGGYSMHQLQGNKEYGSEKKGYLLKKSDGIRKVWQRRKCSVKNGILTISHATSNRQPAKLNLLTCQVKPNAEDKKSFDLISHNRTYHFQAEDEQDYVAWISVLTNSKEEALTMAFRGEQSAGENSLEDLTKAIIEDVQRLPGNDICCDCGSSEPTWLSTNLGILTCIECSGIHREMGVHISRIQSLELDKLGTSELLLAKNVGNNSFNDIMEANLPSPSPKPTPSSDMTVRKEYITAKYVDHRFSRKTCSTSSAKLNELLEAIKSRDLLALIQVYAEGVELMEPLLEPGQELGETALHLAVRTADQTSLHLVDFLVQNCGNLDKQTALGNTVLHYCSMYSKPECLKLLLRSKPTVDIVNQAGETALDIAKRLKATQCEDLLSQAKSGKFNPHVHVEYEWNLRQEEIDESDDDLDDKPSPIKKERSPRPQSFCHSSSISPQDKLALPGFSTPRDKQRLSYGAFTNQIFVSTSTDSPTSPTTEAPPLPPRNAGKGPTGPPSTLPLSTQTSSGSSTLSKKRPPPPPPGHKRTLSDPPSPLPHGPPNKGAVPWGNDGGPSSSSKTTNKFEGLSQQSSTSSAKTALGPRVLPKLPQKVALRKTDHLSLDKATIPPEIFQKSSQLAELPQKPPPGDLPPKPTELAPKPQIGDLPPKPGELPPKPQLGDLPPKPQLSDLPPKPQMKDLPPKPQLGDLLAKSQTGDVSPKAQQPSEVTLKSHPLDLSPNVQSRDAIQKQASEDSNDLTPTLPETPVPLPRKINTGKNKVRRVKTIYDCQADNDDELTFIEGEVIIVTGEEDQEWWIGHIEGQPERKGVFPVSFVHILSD", "type": "functional"}, "[5]": {"assay": "Luminescence Cell-Based Dose Response HTS to Identify Inhibitors of 5'UTR Stem-Loop Driven Prion Protein mRNA Translation in H4 Neuroglioblastoma Cells. [Related pubchem assays: 1827 (Project Summary), 1813 (Primary HTS)]", "type": "functional"}, "[6]": {"assay": "inhibitors of SNCA 5'UTR-driven reporter translation, confirmation, H4 neuroglioma cells, luminescence (AID 1988)", "type": "functional, cell-based"}, "HEK293": {"tested_on": "HEK293", "assay": "inhibitors of LMP1-driven NF-kB reporter, dose response, cell-based, HEK293, luciferase, cherry-pick (AID 588343)", "type": "functional", "conditions": "Homo sapiens"}, "[7]": {"assay": "A549 cell cytotoxicity, dose response, cytotoxicity control, plate reader, cherry-pick, antagonist series (AID 743412)", "type": "functional, cell-based"}, "[8]": {"assay": "HepG2 cell cytotoxicity, dose response, cytotoxicity control, plate reader, cherry-pick, antagonist series (AID 743416)", "type": "functional, cell-based"}, "[9]": {"assay": "LGR2 antagonists, dose response, cell-based, HEK293, CRE-luciferase reporter, cherry pick, set 2 (AID 743343);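 also: transfected cells were stimulated with diluted bursicon conditioned medium after compound addition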", "type": "functional"}, "[10]": {"assay": "MC4R antagonists, dose response, counter-screen for LGR2 antagonist project, cell-based, plate reader, cherry pick (AID 743444);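 also: transfected HEK 293 cells stimulated with alpha-MSH peptide; potency of inhibitors of the alpha-MSH evoked signal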", "type": "functional"}, "[11]": {"assay": "HEK293 cell cytotoxicity, dose response, cytotoxicity control, plate reader, cherry-picked samples (AID 743446)", "type": "functional, cell-based"}, "HeLa": {"tested_on": "HeLa", "assay": "HeLa cell cytotoxicity, dose response, cytotoxicity control for MITF activator project, CellTiter-Glo luminescence, cherry-pick samples (AID 540259)", "type": "functional, cell-based", "conditions": "Homo sapiens"}}, "note": "Activity calls are given as the source filed them."}
{"compound": "CCOC(=O)N1CCN(CCC(=O)c2ccc(OC)cc2)CC1", "values": [{"measurement": "IC50", "setting": "Melanocortin receptor 4", "result": "> 64.5 µM (inactive)"}, {"measurement": "IC50", "setting": "[1]", "result": "> 64.5 µM (inactive)"}]}
{"compound": "COc1cc2c3nnc(-c4ccc(F)cc4)c-3cn(Cc3cccc(C)c3)c2cc1OC", "values": [{"measurement": "IC50", "setting": "CHO", "result": "10.2 µM (inactive)"}, {"measurement": "EC50", "setting": "[2]", "result": "24.1 µM (inactive)"}, {"measurement": "IC50", "setting": "Beta Lactamase", "result": "3.92 µM (active)"}, {"measurement": "EC50", "setting": "[3]", "result": "16.7 µM (active)"}, {"measurement": "IC50", "setting": "[4]", "result": "7.44 µM (active)"}]}
{"compound": "O=C(Nc1ccccn1)c1onc2c1CCCC2", "values": [{"measurement": "EC50", "setting": "[5]", "result": "50.2 µM (active)"}, {"measurement": "EC50", "setting": "[6]", "result": "4.67 µM (active)"}, {"measurement": "AC50", "setting": "HEK293", "result": "1.46 µM (active)"}, {"measurement": "AC50", "setting": "[7]", "result": "45.1 µM (active)"}, {"measurement": "AC50", "setting": "[8]", "result": "15.9 µM (active)"}, {"measurement": "AC50", "setting": "[9]", "result": "3.65 µM (active)"}, {"measurement": "AC50", "setting": "[10]", "result": "3.55 µM (active)"}, {"measurement": "AC50", "setting": "[11]", "result": "> 52 µM (inactive)"}]}
{"compound": "Nc1c(C(=O)N2CCCC2)sc2nc(-c3ccccc3)ccc12", "values": [{"measurement": "IC50", "setting": "CHO", "result": "> 49.7 µM (inactive)"}, {"measurement": "IC50", "setting": "Beta Lactamase", "result": "12.4 µM (inactive)"}, {"measurement": "AC50", "setting": "HeLa", "result": "197 µM (active)"}]}
